These results are taken from ChEMBL document CHEMBL1697781, “Assessment of the health effects of chemicals in humans: II. Construction of an adverse effects database for QSAR modeling” (Curr Drug Discov Technol, 2004).

Each structure is given as a SMILES string.

Holding throughout (conditions): human
In data set [1] the test system is Hepatotoxicity. Briefly: FDA HLAED, lactate dehydrogenase (LDH) increase.
Data set [2] deals with Hepatotoxicity. As to the kind of experiment: FDA HLAED, serum glutamic pyruvic transaminase (SGPT) increase.
Data set [3] deals with Hepatotoxicity. As to the kind of experiment: FDA HLAED, alkaline phosphatase increase.
The test system of data set [4] is Hepatotoxicity. Briefly: FDA HLAED, liver enzyme composite activity.
The subject of data set [5] is Hepatotoxicity. Briefly: FDA HLAED, gamma-glutamyl transferase (GGT) increase.
For data set [6], the system named is Hepatotoxicity. Briefly: FDA HLAED, serum glutamic oxaloacetic transaminase (SGOT) increase.
For GGT Increase - Index Value in this document: reference of the scale not given here.
For LDH Increase - Index Value in this document: reference of the scale not given here.

On to `CC(C)c1ccc2oc3nc(N)c(C(=O)O)cc3c(=O)c2c1` [AMLEXANOX], for which, in the data set on Hepatotoxicity [1], the “LDH Increase - Activity Score” value was “Inactive”, the “LDH Increase - Index Value” stood at 0 and the “LDH Increase - Number of Reports” value is given as less than 4. Besides, in the data set with Hepatotoxicity [2], the “SGPT Increase - Activity Score” value is given as “Inactive”, the “SGPT Increase - Index Value” worked out at 0 and the “SGPT Increase - Number of Reports” value is listed as less than 4. In addition, in the data set on Hepatotoxicity [3], the “Alkaline Phosphatase Increase - Activity Score” value is listed as “Inactive”, the “Alkaline Phosphatase Increase - Index Value” is 0 and the “Alkaline Phosphatase Increase - Number of Reports” value is less than 4. Moreover, in the data set on Hepatotoxicity [4], the “Composite Activity - Active” value was 0, the “Composite Activity - Marginal” value is recorded as 0 and the “Composite Activity - Score” value is on record as “Inactive”. In the data set on Hepatotoxicity [5], the “GGT Increase - Activity Score” value is “Inactive”, the “GGT Increase - Index Value” is 0 and the “GGT Increase - Number of Reports” value is given as less than 4. In addition, in the data set with Hepatotoxicity [6], the “SGOT Increase - Activity Score” value was “Inactive”, the “SGOT Increase - Index Value” is reported as 0 and the “SGOT Increase - Number of Reports” value is recorded as less than 4.

As to `CCOC(=O)C1=C(COCCN)NC(C)=C(C(=O)OC)C1c1ccccc1Cl` (configuration not stated) [AMLODIPINE], in the data set with Hepatotoxicity [1], the “LDH Increase - Activity Score” value is listed as “Inactive”, the “LDH Increase - Index Value” is listed as 0.7 and the “LDH Increase - Number of Reports” value is listed as “>= 4”. In the data set on Hepatotoxicity [2], the “SGPT Increase - Activity Score” value is listed as “Inactive”, the “SGPT Increase - Index Value” turned out to be 1.2 and the “SGPT Increase - Number of Reports” value is listed as “>= 4”. Moreover, in the data set on Hepatotoxicity [3], the “Alkaline Phosphatase Increase - Activity Score” value is “Inactive”, the “Alkaline Phosphatase Increase - Index Value” is reported as 1 and the “Alkaline Phosphatase Increase - Number of Reports” value is “>= 4”. In the data set with Hepatotoxicity [4], the “Composite Activity - Active” value was found to be 0, the “Composite Activity - Marginal” value came out at 0 and the “Composite Activity - Score” value is “Inactive”. Moreover, in the data set on Hepatotoxicity [5], the “GGT Increase - Activity Score” value is recorded as “Inactive”, the “GGT Increase - Index Value” came out at 0.8 and the “GGT Increase - Number of Reports” value is reported as “>= 4”. In the data set with Hepatotoxicity [6], the “SGOT Increase - Activity Score” value was “Inactive”, the “SGOT Increase - Index Value” worked out at 1.3 and the “SGOT Increase - Number of Reports” value is “>= 4”.

For the compound `Clc1ccc2c(c1)C(N1CCNCC1)=Nc1ccccc1O2` [AMOXAPINE], in the data set with Hepatotoxicity [1], the “LDH Increase - Activity Score” value is “Inactive”, the “LDH Increase - Index Value” stood at 0.7 and the “LDH Increase - Number of Reports” value was less than 4. Besides, in the data set on Hepatotoxicity [2], the “SGPT Increase - Activity Score” value is recorded as “Inactive”, the “SGPT Increase - Index Value” is 0.7 and the “SGPT Increase - Number of Reports” value was less than 4. In the data set on Hepatotoxicity [3], the “Alkaline Phosphatase Increase - Activity Score” value is “Inactive”, the “Alkaline Phosphatase Increase - Index Value” came out at 0.7 and the “Alkaline Phosphatase Increase - Number of Reports” value is given as less than 4. Besides, in the data set on Hepatotoxicity [4], the “Composite Activity - Active” value amounted to 0, the “Composite Activity - Marginal” value was found to be 0 and the “Composite Activity - Score” value is listed as “Inactive”. In the data set on Hepatotoxicity [5], the “GGT Increase - Activity Score” value is on record as “Inactive”, the “GGT Increase - Index Value” amounted to 0 and the “GGT Increase - Number of Reports” value is listed as less than 4. In the data set on Hepatotoxicity [6], the “SGOT Increase - Activity Score” value is “Inactive”, the “SGOT Increase - Index Value” is on record as 1 and the “SGOT Increase - Number of Reports” value is reported as less than 4.

For the compound `CC1(C)S[C@@H]2[C@H](NC(=O)[C@H](N)c3ccc(O)cc3)C(=O)N2[C@H]1C(=O)O` [AMOXICILLIN], in the data set on Hepatotoxicity [1], the “LDH Increase - Activity Score” value was “Inactive”, the “LDH Increase - Index Value” was 0 and the “LDH Increase - Number of Reports” value is reported as less than 4. In the data set with Hepatotoxicity [2], the “SGPT Increase - Activity Score” value is “Inactive”, the “SGPT Increase - Index Value” is listed as 0 and the “SGPT Increase - Number of Reports” value was less than 4. In the data set on Hepatotoxicity [3], the “Alkaline Phosphatase Increase - Activity Score” value was “Inactive”, the “Alkaline Phosphatase Increase - Index Value” was 0 and the “Alkaline Phosphatase Increase - Number of Reports” value is less than 4. Also, in the data set with Hepatotoxicity [4], the “Composite Activity - Active” value worked out at 0, the “Composite Activity - Marginal” value amounted to 0 and the “Composite Activity - Score” value was “Inactive”. Moreover, in the data set on Hepatotoxicity [5], the “GGT Increase - Activity Score” value is listed as “Inactive”, the “GGT Increase - Index Value” is on record as 0 and the “GGT Increase - Number of Reports” value is given as less than 4. Also, in the data set with Hepatotoxicity [6], the “SGOT Increase - Activity Score” value is listed as “Inactive”, the “SGOT Increase - Index Value” stood at 0.1 and the “SGOT Increase - Number of Reports” value is recorded as less than 4.

For `CC(C)(C#N)c1cc(Cn2cncn2)cc(C(C)(C)C#N)c1` [ANASTROZOLE], in the data set with Hepatotoxicity [1], the “LDH Increase - Activity Score” value was “Inactive”, the “LDH Increase - Index Value” is recorded as 6.4 and the “LDH Increase - Number of Reports” value is listed as less than 4. In the data set on Hepatotoxicity [2], the “SGPT Increase - Activity Score” value was “Active”, the “SGPT Increase - Index Value” turned out to be 12.8 and the “SGPT Increase - Number of Reports” value was “>= 4”. In the data set with Hepatotoxicity [3], the “Alkaline Phosphatase Increase - Activity Score” value is listed as “Inactive”, the “Alkaline Phosphatase Increase - Index Value” is reported as 6.4 and the “Alkaline Phosphatase Increase - Number of Reports” value is reported as less than 4. Moreover, in the data set with Hepatotoxicity [4], the “Composite Activity - Active” value is on record as 2, the “Composite Activity - Marginal” value is reported as 0 and the “Composite Activity - Score” value was “Active”. Moreover, in the data set on Hepatotoxicity [5], the “GGT Increase - Activity Score” value is reported as “Inactive”, the “GGT Increase - Index Value” came out at 0 and the “GGT Increase - Number of Reports” value was less than 4. In addition, in the data set with Hepatotoxicity [6], the “SGOT Increase - Activity Score” value is recorded as “Active”, the “SGOT Increase - Index Value” worked out at 16.1 and the “SGOT Increase - Number of Reports” value is given as “>= 4”.

On to `Nc1cc(Cl)c(N=C2NCCN2)c(Cl)c1` [APRACLONIDINE], for which, in the data set on Hepatotoxicity [1], the “LDH Increase - Activity Score” value is given as “Inactive”, the “LDH Increase - Index Value” is reported as 0 and the “LDH Increase - Number of Reports” value is less than 4. Also, in the data set with Hepatotoxicity [2], the “SGPT Increase - Activity Score” value is listed as “Inactive”, the “SGPT Increase - Index Value” was determined as 0 and the “SGPT Increase - Number of Reports” value is listed as less than 4. Moreover, in the data set with Hepatotoxicity [3], the “Alkaline Phosphatase Increase - Activity Score” value is listed as “Inactive”, the “Alkaline Phosphatase Increase - Index Value” is given as 0 and the “Alkaline Phosphatase Increase - Number of Reports” value is listed as less than 4. Besides, in the data set on Hepatotoxicity [4], the “Composite Activity - Active” value worked out at 0, the “Composite Activity - Marginal” value came out at 0 and the “Composite Activity - Score” value is recorded as “Inactive”. Also, in the data set on Hepatotoxicity [5], the “GGT Increase - Activity Score” value is recorded as “Inactive”, the “GGT Increase - Index Value” came to 0 and the “GGT Increase - Number of Reports” value is listed as less than 4. In the data set with Hepatotoxicity [6], the “SGOT Increase - Activity Score” value was “Inactive”, the “SGOT Increase - Index Value” is recorded as 0 and the “SGOT Increase - Number of Reports” value is less than 4.

For the compound `COc1ccc(CCN2CCC(Nc3nc4ccccc4n3Cc3ccc(F)cc3)CC2)cc1` [ASTEMIZOLE], in the data set on Hepatotoxicity [1], the “LDH Increase - Activity Score” value is “Inactive”, the “LDH Increase - Index Value” is listed as 0.4 and the “LDH Increase - Number of Reports” value is given as less than 4. In addition, in the data set with Hepatotoxicity [2], the “SGPT Increase - Activity Score” value is given as “Inactive”, the “SGPT Increase - Index Value” came out at 2.8 and the “SGPT Increase - Number of Reports” value is listed as “>= 4”. Further, in the data set with Hepatotoxicity [3], the “Alkaline Phosphatase Increase - Activity Score” value is “Inactive”, the “Alkaline Phosphatase Increase - Index Value” was 1.2 and the “Alkaline Phosphatase Increase - Number of Reports” value is given as “>= 4”. In the data set with Hepatotoxicity [4], the “Composite Activity - Active” value amounted to 0, the “Composite Activity - Marginal” value was 0 and the “Composite Activity - Score” value is listed as “Inactive”. Further, in the data set on Hepatotoxicity [5], the “GGT Increase - Activity Score” value was “Inactive”, the “GGT Increase - Index Value” is given as 1.4 and the “GGT Increase - Number of Reports” value is listed as “>= 4”. Besides, in the data set on Hepatotoxicity [6], the “SGOT Increase - Activity Score” value was “Inactive”, the “SGOT Increase - Index Value” was found to be 2.6 and the “SGOT Increase - Number of Reports” value is “>= 4”.

For `CC(C)NCC(O)COc1ccc(CC(N)=O)cc1` (configuration not stated) [ATENOLOL], in the data set with Hepatotoxicity [1], the “LDH Increase - Activity Score” value is “Inactive”, the “LDH Increase - Index Value” was found to be 0.1 and the “LDH Increase - Number of Reports” value is recorded as less than 4. In the data set on Hepatotoxicity [2], the “SGPT Increase - Activity Score” value is given as “Inactive”, the “SGPT Increase - Index Value” came out at 0.3 and the “SGPT Increase - Number of Reports” value is reported as “>= 4”. In the data set with Hepatotoxicity [3], the “Alkaline Phosphatase Increase - Activity Score” value is reported as “Inactive”, the “Alkaline Phosphatase Increase - Index Value” is 0.1 and the “Alkaline Phosphatase Increase - Number of Reports” value is given as less than 4. For the same compound, in the data set on Hepatotoxicity [4] (Liver), the “Composite Activity - Active” value came to 0, the “Composite Activity - Marginal” value turned out to be 0 and the “Composite Activity - Score” value is “Inactive”. For the same compound, in the data set on Hepatotoxicity [5], the “GGT Increase - Activity Score” value is recorded as “Inactive”, the “GGT Increase - Index Value” is on record as 0 and the “GGT Increase - Number of Reports” value was less than 4. Further, in the data set with Hepatotoxicity [6], the “SGOT Increase - Activity Score” value was “Inactive”, the “SGOT Increase - Index Value” is 0.5 and the “SGOT Increase - Number of Reports” value was “>= 4”.

Take `CC(C)c1c(C(=O)Nc2ccccc2)c(-c2ccccc2)c(-c2ccc(F)cc2)n1CC[C@@H](O)C[C@@H](O)CC(=O)O` [ATORVASTATIN]: in the data set on Hepatotoxicity [1], the “LDH Increase - Activity Score” value is “Inactive”, the “LDH Increase - Index Value” is listed as 2.5 and the “LDH Increase - Number of Reports” value is “>= 4”. Moreover, in the data set on Hepatotoxicity [2], the “SGPT Increase - Activity Score” value was “Active”, the “SGPT Increase - Index Value” is reported as 7.3 and the “SGPT Increase - Number of Reports” value is listed as “>= 4”. In the data set on Hepatotoxicity [3], the “Alkaline Phosphatase Increase - Activity Score” value is reported as “Inactive”, the “Alkaline Phosphatase Increase - Index Value” is 1.7 and the “Alkaline Phosphatase Increase - Number of Reports” value is “>= 4”. Besides, in the data set on Hepatotoxicity [4] (Liver), the “Composite Activity - Active” value is listed as 3, the “Composite Activity - Marginal” value was 0 and the “Composite Activity - Score” value was “Active”. For the same compound, in the data set on Hepatotoxicity [5], the “GGT Increase - Activity Score” value is “Active”, the “GGT Increase - Index Value” is listed as 6.2 and the “GGT Increase - Number of Reports” value is “>= 4”. Moreover, in the data set on Hepatotoxicity [6], the “SGOT Increase - Activity Score” value is recorded as “Active”, the “SGOT Increase - Index Value” is on record as 6.5 and the “SGOT Increase - Number of Reports” value is “>= 4”.
